Results: PMC9283466, “In silico identification of two peptides with antibacterial activity against multidrug-resistant Staphylococcus aureus” (NPJ Biofilms and Microbiomes, 2022)
Converted amounts (≈) assume the structure as drawn. Bridge positions count the residues as written; N and C are the ends. Peptide text beside a SMILES is read from it.

Columns and labels:
[1] = Pure lipid preference order from critical pressure of insertion; assay type: binding; details: pure bacterial and eukaryotic lipids
Procedure: (§1) Peptide–lipid interaction was measured using a lipid monolayer formed at the air:water interface with total lipid extracts and pure lipids. Total lipids were extracted from overnight cultures of MRSA or human erythrocytes using the Folch extraction procedure[14],[40]. Extracted total lipids were dried, re-solubilised in chloroform:methanol (2:1, v/v) and stored at −20 °C under nitrogen. […] The variation of the surface pressure caused by peptide insertion was then continuously monitored using a fully automated microtensiometer (µTROUGH SX, Kibron Inc, Finland) until it reached equilibrium (maximal surface pressure increase is usually obtained after 15–25 min). […] In other experiments, the critical pressure of insertion of HG2 or HG4 in the total lipid extracts and pure lipids was measured as follows[14],[56]. Briefly, in these experiments, the initial pressure of the lipid monolayer was set up at different values (between 10 and 30 mN/m) and the variation of pressure caused by the injection of the peptide was measured. […] All experiments were carried out in a controlled atmosphere at 20 ± 1 °C and data were analyzed using the Firmware 2.5 programme (Kibron Inc.). The accuracy of the system under our experimental conditions was determined to be ±0.25 mN/m for surface pressure measurements.

[2] = Peptide-lipid interaction and insertion, lipid monolayer; assay type: binding; details: for Speed of insertion: initial surface pressure 30+/-0.5 mN/m; for Critical pressure of insertion πc: peptide 1 µg/mL
Procedure: Peptide–lipid interaction was measured using a lipid monolayer formed at the air:water interface with total lipid extracts and pure lipids. Total lipids were extracted from overnight cultures of MRSA or human erythrocytes using the Folch extraction procedure[14],[40]. Extracted total lipids were dried, re-solubilised in chloroform:methanol (2:1, v/v) and stored at −20 °C under nitrogen. Pure prokaryotic and eukaryotic lipids used were: cardiolipin, POPC (1-palmitoyl-2-oleoyl-glycero-3-phosphocholine), POPE (1-palmitoyl-2-oleoyl-sn-glycero-3-phosphoethanolamine) and POPG (1-palmitoyl-2-oleoyl-sn-glycero-3-phospho-(1’-rac-glycerol) (Avanti Polar Lipid). LTA (Lipoteichoic acid from S. aureus) and LPS (lipopolysaccharide from E. coli) (Invitrogen, UK) were also tested. Pure lipids were reconstituted in chloroform:methanol (2:1 v/v) at 1 mg/ml and stored at −20 °C under nitrogen. For peptide–lipid interaction assay, lipid monolayers at the air:water interface were formed by spreading total lipid extract or pure lipids at the surface of 800 µl of sterile PBS using a 50 µl Hamilton’s syringe. Lipids were added until the surface pressure reached the desired value. After 5–10 min of incubation allowing the evaporation of the solvent and stabilisation of the initial surface pressure, 8 µl of HG2 or HG4 diluted in sterile PBS at 100 µg/ml were injected into the 800 µl sub-phase of PBS under the lipid monolayer (pH 7.4, volume 800 µl) using a 10 µl Hamilton’s syringe giving a final concentration of peptide of 1 µg/ml, as preliminary experiments had shown that this concentration was optimal. The variation of the surface pressure caused by peptide insertion was then continuously monitored using a fully automated microtensiometer (µTROUGH SX, Kibron Inc, Finland) until it reached equilibrium (maximal surface pressure increase is usually obtained after 15–25 min). To reflect physiological situations, the initial surface pressure was fixed at 30 ± 0.5 mN/m in some experiments as this value corresponds to a lipid packing density theoretically equivalent to that of the outer leaflet of the eukaryotic and prokaryotic cell membrane. In other experiments, the critical pressure of insertion of HG2 or HG4 in the total lipid extracts and pure lipids was measured as follows[14],[56]. Briefly, in these experiments, the initial pressure of the lipid monolayer was set up at different values (between 10 and 30 mN/m) and the variation of pressure caused by the injection of the peptide was measured. […] All experiments were carried out in a controlled atmosphere at 20 ± 1 °C and data were analyzed using the Firmware 2.5 programme (Kibron Inc.). The accuracy of the system under our experimental conditions was determined to be ±0.25 mN/m for surface pressure measurements.

MRSA USA300 biofilms = assay: Anti-biofilm activity, 96-well biofilm model (crystal violet); assay type: cell-based, Staphylococcus aureus; details: established MRSA USA300 biofilms; for reduction in biofilm formation: sub-MIC (0.25x and 0.5 x MIC) and MIC concentrations; for biofilm reduction: supra-MIC concentrations (2x and 4x MIC)
Procedure: The ability of HG2 and HG4 to disrupt established S. aureus biofilms was measured using a 96-well format as described by ref. [14]. MRSA USA300 cultures grown overnight in Brain Heart Infusion (BHI) broth was resuspended to OD600nm = 0.02 and grown without aeration at 37 °C in 96-well tissue culture plates for an additional 24 h. The planktonic cells were removed by three PBS (phosphate-buffered saline) washes. Thereafter, fresh BHI broth containing peptides HG2 or HG4 at sub- and supra-MIC concentrations (0.5, 1, 2 and 4x MIC) was added to wells containing adherent cells and incubated without shaking for another 24 h. Planktonic cells were again removed by three PBS washes. Biofilms were fixed with methanol for 20 min, stained with 0.4% (w/v) crystal violet solution for 20 min and re-solubilised with 33% (v/v) acetic acid. The optical density of re-solubilised biofilms was measured at 570 nm in a microplate spectrophotometer. The percentage biofilm reduction was calculated using the equation below: Percentagebiofilmreduction(%)=PositiveControl−ODofSample/PositiveControl−NegativeControl The plot showing anti-biofilm activity (% biofilm reduction) was generated using the ‘ggplot2’ package[53] in R (v 4.1.1)[54] with log-linear regression performed using lm() function.

[3] = Peptide-lipid interaction and insertion, lipid monolayer; assay type: binding, Staphylococcus aureus; details: MRSA extract; initial surface pressure 30+/-0.5 mN/m
Procedure: as §1

[4] = system: MRSA USA300 cytoplasmic membrane; assay type: cell-based, Staphylococcus aureus; details: for EC50 of membrane permeabilisation: USA300, 3 h
Procedure: Permeabilisation of the bacterial cytoplasmic membrane by HG2 and HG4 peptide was evaluated using the cell-impermeable DNA probe propidium iodide[14],[40]. Logarithmic-phase bacterial suspension of MRSA USA300 was prepared by diluting overnight cultures in fresh MHB (1 in 10 dilutions), incubated (3 h; 37 °C; 200 rpm), and pelleted by centrifugation (5 min; 3000×g). The bacterial cell pellet was then resuspended in sterile PBS at ~10^9 bacteria/ml. Propidium iodide (at 1 mg/ml, Sigma-Aldrich) was added to the bacterial suspension at a final concentration of 60 µM. This suspension (100 µl) was then transferred into black 96-well plates already containing 100 µl of serially diluted HG2 or HG4 peptide in PBS. Kinetics of fluorescence variations (excitation at 530 nm/emission at 590 nm) were then recorded using a microplate reader for a duration of 80 min with incubation at 37 °C. Cetyl trimethylammonium bromide (CTAB) (at 300 µM) served as positive control giving 100% permeabilisation. The permeabilisation effect of HG2 and HG4 were expressed as a percentage of total permeabilisation.

S. aureus ATCC 33591 = assay: microbe, parasite or virus in culture; assay type: cell-based, Staphylococcus aureus; details: ATCC 33591
Procedure: (§2) To determine the antimicrobial activity of the new antimicrobial peptides, HG2 and HG4, their minimum inhibitory concentrations (MICs) were determined by broth microdilution method[51] in cation adjusted Mueller Hinton broth (MHB) following the International Organisation for Standardisation (ISO) 20776-1 standard for MIC testing using a final bacterial inoculum of 5 × 10^5 CFU/ml[52]. […] The peptides dissolved in sterile distilled water were added to bacteria culture and incubated overnight at appropriate conditions. The MICs of the peptides and comparator antibiotics were recorded after 18–24 h. The minimum bactericidal concentrations (MBCs) were also determined and were taken as the lowest concentration of the antimicrobial that prevented the growth of bacterial cells after the subculture of cells (from MIC treatment) onto antibiotic-free media.

S. aureus EMRSA-15 = assay: microbe, parasite or virus in culture; assay type: cell-based, Staphylococcus aureus; details: EMRSA-15
Procedure: as §2

[5] = system: S. aureus USA300 BAA-1717; assay: microbe, parasite or virus in culture; assay type: cell-based, Staphylococcus aureus; details: USA300
Procedure: as §2

For `CC[C@H](C)[C@H](NC(=O)[C@H](CC(C)C)NC(=O)[C@H](CC(C)C)NC(=O)[C@H](CC(C)C)NC(=O)[C@H](CCCCN)NC(=O)[C@H](CCCCN)NC(=O)[C@@H](N)CCSC)C(=O)N[C@@H](CC(C)C)C(=O)N[C@@H](Cc1ccccc1)C(=O)N[C@H]1CSSC[C@@H](C(=O)N[C@@H](CCCCN)C(=O)N[C@@H](CCCCN)C(=O)N[C@@H](C)C(=O)N2CCC[C@H]2C(N)=O)NC(=O)CNC(=O)[C@H](C)NC(=O)[C@H](CC(C)C)NC(=O)[C@H](C)NC(=O)[C@H](CC(C)C)NC(=O)[C@H](C)NC(=O)[C@H](CC(C)C)NC1=O` [HG2] (H-MKKLLLILFCLALALAGCKKAP-NH2; disulfide 10-18; N-terminus assumed), the “order of preference for pure lipids (critical pressure of insertion)” value [1] was “PC > PG > LTA > Cardio > PE > LPS”, the Speed of insertion ([2]; Cardiolipin) was 4.74 mN/m/10 sec and the “Critical pressure of insertion πc” value ([2]; Cardiolipin) was 41.30 mN/m. The Speed of insertion ([2]; PC) was 8.58 mN/m/10 sec, the “Critical pressure of insertion πc” value ([2]; PC) was 62.79 mN/m and the Speed of insertion ([2]; PE) was 1.89 mN/m/10 sec. The “Critical pressure of insertion πc” value ([2]; PE) was 39.49 mN/m, the Speed of insertion ([2]; PG) was 3.70 mN/m/10 sec and the “Critical pressure of insertion πc” value ([2]; PG) was 51.19 mN/m. The “reduction in biofilm formation” value (MRSA USA300 biofilms) was “less than 50%”, the biofilm reduction (MRSA USA300 biofilms) was no less than 50% and the Speed of insertion [3] was 3.36 mN/m/10 sec. For the same compound, the “EC50 of membrane permeabilisation” value [4] was 1.351 ± 0.27 µg/mL, the “permeabilisation at 1 min” value ([4]; at MIC concentration) was 80% and the MIC (S. aureus ATCC 33591) was 64 µg/mL (≈ 27.2 µM). It also gave an MIC (S. aureus EMRSA-15) of 32 µg/mL (≈ 13.6 µM) and an MIC [5] of 16 µg/mL (≈ 6.79 µM).

With `CC[C@H](C)[C@H](NC(=O)[C@H](CC(C)C)NC(=O)[C@H](CC(C)C)NC(=O)[C@H](C)NC(=O)CNC(=O)CNC(=O)[C@@H](NC(=O)[C@@H](NC(=O)[C@H](CC(C)C)NC(=O)[C@H](C)NC(=O)[C@H](CC(C)C)NC(=O)CNC(=O)[C@H](CC(C)C)NC(=O)[C@@H](N)C(C)C)[C@@H](C)CC)C(C)C)C(=O)N[C@@H](CCCCN)C(=O)N[C@@H](CCCCN)C(=O)N[C@@H](CCCCN)C(=O)N[C@@H](CCC(N)=O)C(=O)N[C@@H](C)C(=O)N[C@@H](CCCCN)C(=O)N[C@@H](CO)C(N)=O` [HG4] (H-VLGLALIVGGALLIKKKQAKS-NH2; N-terminus and C-terminus assumed) the “order of preference for pure lipids (critical pressure of insertion)” value [1] was “PG > cardiolipin > LTA > LPS > PE > PC”, the Speed of insertion ([2]; Cardiolipin) was 2.44 mN/m/10 sec and the “Critical pressure of insertion πc” value ([2]; Cardiolipin) was 46.49 mN/m. For the same compound, the Speed of insertion ([2]; PC) was 0.50 mN/m/10 sec, the “Critical pressure of insertion πc” value ([2]; PC) was 28.8 mN/m and the Speed of insertion ([2]; PE) was 0.20 mN/m/10 sec. The “Critical pressure of insertion πc” value ([2]; PE) was 33.9 mN/m, the Speed of insertion ([2]; PG) was 2.48 mN/m/10 sec and the “Critical pressure of insertion πc” value ([2]; PG) was 47.55 mN/m. For the same compound, the “reduction in biofilm formation” value (MRSA USA300 biofilms) was “less than 50%”, the biofilm reduction (MRSA USA300 biofilms) was no less than 50% and the Speed of insertion [3] was 1.69 mN/m/10 sec. The “EC50 of membrane permeabilisation” value [4] was 13.85 ± 3.22 µg/mL, the MIC (S. aureus ATCC 33591) was 32 µg/mL (≈ 15.1 µM) and the MIC (S. aureus EMRSA-15) was 32 µg/mL (≈ 15.1 µM). The MIC [5] was 32 µg/mL (≈ 15.1 µM).
